Measurements published in patent EP1652531A1, “Use of GLP-1 or Analogues in Treatment of Stroke” (Eli Lilly & Company, priority 1998, dated 2006).

Tests used:
STC-1 cells = settings: exposure of STC-1 cells (Abella et al., 1994); cited from earlier work
[1] = tested on: patients having non-insulin dependent diabetes (NIDDM); experiment: Overnight continuous subcutaneous infusion, blood glucose in NIDDM patients (Example 1); settings: five NIDDM patients; subcutaneous infusion 1.2 pmol/kg/hr for ten hours during the night
NIDDM patients = experiment: Infusion for three hours at each meal during the day, blood glucose in NIDDM patients (Example 2); settings: five NIDDM patients

| Compound | release of GLP-1 (STC-1 cells) | hypoglycemia [1] | untoward side effects (NIDDM patients) |
| --- | --- | --- | --- |
| 12-O-tetradecanoylphobol-13-acetate [TPA] | significant increases | – | – |
| CC[C@H](C)[C@H](NC(=O)[C@H](Cc1ccccc1)NC(=O)[C@H](CCC(=O)O)NC(=O)[C@H](CCCCN)NC(=O)[C@H](C)NC(=O)[C@H](C)NC(=O)[C@H](CCC(N)=O)NC(=O)CNC(=O)[C@H](CCC(=O)O)NC(=O)[C@H](CC(C)C)NC(=O)[C@H](Cc1ccc(O)cc1)NC(=O)[C@H](CO)NC(=O)[C@H](CO)NC(=O)[C@@H](NC(=O)[C@H](CC(=O)O)NC(=O)[C@H](CO)NC(=O)[C@@H](NC(=O)[C@H](Cc1ccccc1)NC(=O)[C@@H](NC(=O)CNC(=O)[C@H](CCC(=O)O)NC(=O)[C@H](C)NC(=O)[C@@H](N)Cc1c[nH]cn1)[C@@H](C)O)[C@@H](C)O)C(C)C)C(=O)N[C@@H](C)C(=O)N[C@@H](Cc1c[nH]c2ccccc12)C(=O)N[C@@H](CC(C)C)C(=O)N[C@H](C(=O)N[C@@H](CCCCN)C(=O)NCC(=O)N[C@@H](CCCNC(=N)N)C(N)=O)C(C)C [GLP-1(7-36) amide] | – | without inducing hypoglycemia in any of the patients | No untoward side effects |
